Experimental data from patent US11180657B2, “Polysulfonated fluorescence dyes” (ATTO-TEC GmbH, priority 2017, dated 2021).
Marks after values point to notes of the source that are not given here.

Legend:
Format in all cases: physicochemical
[1] = Lactone or pseudobase formation in aqueous weakly alkaline solution; settings: aqueous weakly alkaline solutions; reversible
Excerpt: Normally such lactones are adequately stabilized only in aprotic solvents such as acetone or chloroform. In protic solvents the carboxyl group is deprotonated and a slightly more short-wave absorbing and fluorescent zwitterion is formed. In the exemplary compounds, however, colorless compounds are formed due to the strong electron attraction of the indicated substituents, due to internal ester formation and the associated interruption of the conjugated system. If the carboxyl group is not free but is present as an ester or tertiary amide, so-called pseudobases are formed, through nucleophilic attack (hydroxide ions etc.) at the central carbon atom, which is stronger positivized by the electron-attracting substituents, which pseudobases are likewise colorless due to the interruption of the conjugated system. Both reactions are reversible; by changing the pH value, the dielectric constant (“polarity”) and/or the capability of hydrogen bridge bonding (“proticity”), the dye can be restored. Therefore such compounds can in principle be used as probes for the properties of their direct environment: Depending on the milieu, the molecules are present in colorless or colored form. Associated therewith is also a sort of fluorogenicity, because the longwave fluorescence appears only in the dye form.

streptavidin = molecular target: T1, streptavidin (Streptomyces avidinii, UniProt P22629); assay: Fluorescence quantum yield of the dye after coupling to streptavidin, relative to the uncoupled dye; settings: streptavidin conjugate
T1 construct: purchased IBA
T1 sequence (P22629 38-163 limits assumed): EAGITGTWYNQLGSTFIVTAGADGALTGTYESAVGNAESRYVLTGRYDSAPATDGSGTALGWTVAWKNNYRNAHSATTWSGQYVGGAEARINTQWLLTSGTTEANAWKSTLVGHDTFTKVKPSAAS
Excerpt: The average number of dye molecules per biomolecule is expressed by the “degree of labeling” (DOL). […] Since the dye also absorbs in UV, the (total) absorption measured there must still be corrected with the absorption of the dye at this wavelength in order to obtain the actual biomolecule absorption. For this purpose, with commercial dyes, so-called CF values (correction factor values) are given, which describe the ratio of absorptions of the dye at the longwave maximum and at 260 nm or 280 nm.
From the thus obtained (individual) absorptions of dye and biomolecule in the conjugate, taking into consideration the two extinction coefficients, the quotient is formed, which directly indicates the molecular concentration ratio and thus the mean number of dye molecules per biomolecule (“degree of labeling,” DOL).
The compounds listed in Table 1 belong to the class of rhodamines with the same chromophore system. In an aqueous solution at room temperature they all have a comparably high fluorescence quantum yield of about 90%. […] Thus with established marking procedures, a much better detection reliability is achieved.
2 mg of streptavidin (IBA, content approx. 75%) are dissolved under cautious swirling in a glass vial with 1 ml of PBS buffer (pH 7.4) and 50 μl of a 0.2 M sodium hydrogen carbonate solution, which is set to a pH of 9 with sodium hydroxide. The clear solution has a pH-value of 8.3.
40.5 μl of a solution of 170 μg of compound 7 in 50 μl of dry DMSO are added; this corresponds to a dye-streptavidin ratio of 4:1.
The reaction solution is kept for two hours at room temperature and then kept overnight in the refrigerator at 4° C.
Purification is performed in the usual manner over superfine Sephadex G25 (column length 40 cm, diameter 2.5 cm) with PBS buffer as the eluent. The first colored zone contains the streptavidin conjugate.
The DOL can be calculated from the absorption spectrum of the conjugate fraction by the known procedure.

[2] = Absorption maximum of the dye
Excerpt: (§1) Examples of the compounds according to the invention are listed in Tables 2-6, where the structures as well as the absorption and fluorescence maxima are indicated. The spectra of selected compounds are shown FIGS. 5-18.

[3] = Fluorescence maximum of the dye; settings: solvent PBS pH 7.4
Excerpt: as §1

[4] = Fluorescence quencher property (dye itself not fluorescent)
Excerpt: A particular subgroup of the compounds according to the invention is fluorescence quenchers. These dyes are not fluorescent themselves, but can act as acceptors for the emission of fluorescent compounds. A widespread area of use of such quenchers is for instance the measurement of the geometry (distances, size, and arrangement of molecular groups) or the reactivity (enzyme activity, reaction speeds, etc.) using Förster resonance energy transfer (FRET). The fluorescence of the donor can only appear when the distance between donor and acceptor exceeds a critical value. Below this distance, the fluorescence of the donor is quenched by the acceptor (=quencher) which is not fluorescent by itself. An overview of the bioanalytical applications of the FRET technology is provided for example by A. Roda, M. Guardigli, E. Micheline, M. Mirasoli, Nanobioanalytical luminescence: Förster-type energy transfer methods, Anal. Bioanal. Chem. 393, 2009, 109-123.
Examples of quenchers according to the invention are compounds 14, 15, 16 and 17. These rhodamines represent a further development of the dyes designated as “violamines” because of their magenta-colored solutions, see for example H. E. Fierz-David, Künstliche Organische Farbstoffe [Artificial Organic Dyes], Springer-Verlag, Berlin, 1926, p. 276ff. However, also the structure of other dye classes may be modified in this way. Examples according to the invention include compounds 49, 50 and 51 from the class of carbopyronines.

Compound	formation of colorless lactone or pseudobase [1]	λabs ([2]; solvent water/acetonitrile 1:1)	λfl [3]	λabs ([2]; solvent PBS pH 7.4)	further results
CN(CCCC(=O)O)C(=O)c1ccccc1-c1c2cc(S(=O)(=O)O)/c(=N/Cc3ccc(S(=O)(=O)O)cc3S(=O)(=O)O)cc-2oc2cc(NCc3ccc(S(=O)(=O)O)cc3S(=O)(=O)O)c(S(=O)(=O)O)cc12 [Compound 6]	easily form a lactone or pseudobase	534^c nm	559^b nm	–	Fluorescence quantum yield of the dye following coupling to streptavidin in comparison with the uncoupled dye (streptavidin; DOL 2.5, PBS-buffer 25° C.): 42%; Fluorescence quantum yield of the dye following coupling to streptavidin in comparison with the uncoupled dye (streptavidin; DOL 5.5, PBS-buffer 25° C.): 37%
CN(CCCC(=O)O)C(=O)c1ccccc1-c1c2cc/c(=N/CCc3ccc(S(=O)(=O)O)cc3)c(S(=O)(=O)O)c-2oc2c(S(=O)(=O)O)c(NCCc3ccc(S(=O)(=O)O)cc3)ccc12 [Compound 26]	–	538^c nm	558^b nm	–	Fluorescence quantum yield of the dye following coupling to streptavidin in comparison with the uncoupled dye (streptavidin; DOL 7.0, PBS-buffer 25° C.): 8%
CN(CCCC(=O)O)C(=O)c1ccccc1-c1c2cc(S(=O)(=O)O)/c(=N/CCc3ccc(S(=O)(=O)O)cc3)cc-2oc2cc(NCCc3ccc(S(=O)(=O)O)cc3)c(S(=O)(=O)O)cc12 [Compound 19]	easily form a lactone or pseudobase	537^c nm	560^b nm	–	Fluorescence quantum yield of the dye following coupling to streptavidin in comparison with the uncoupled dye (streptavidin; DOL 5.6, PBS-buffer 25° C.): 10%
CN(CCCC(=O)O)C(=O)c1ccccc1-c1c2cc(S(=O)(=O)O)/c(=N/CCc3ccc(S(=O)(=O)O)cc3S(=O)(=O)O)cc-2oc2cc(NCCc3ccc(S(=O)(=O)O)cc3S(=O)(=O)O)c(S(=O)(=O)O)cc12 [Compound 25]	easily form a lactone or pseudobase	–	560^b nm	539^b nm	Fluorescence quantum yield of the dye following coupling to streptavidin in comparison with the uncoupled dye (streptavidin; DOL 2.8, PBS-buffer 25° C.): 45%; Fluorescence quantum yield of the dye following coupling to streptavidin in comparison with the uncoupled dye (streptavidin; DOL 6.7, PBS-buffer 25° C.): 35%
CN(CCCC(=O)NCCCCCC(=O)O)C(=O)c1ccccc1-c1c2cc(S(=O)(=O)O)/c(=N/Cc3ccc(S(=O)(=O)O)cc3S(=O)(=O)O)cc-2oc2cc(NCc3ccc(S(=O)(=O)O)cc3S(=O)(=O)O)c(S(=O)(=O)O)cc12 [Compound 12]	easily form a lactone or pseudobase	536^c nm	555^b nm	–	Fluorescence quantum yield of the dye following coupling to streptavidin in comparison with the uncoupled dye (streptavidin; DOL 3.0, PBS-buffer 25° C.): 27%
O=C(O)c1ccccc1-c1c2cc/c(=N/c3ccc(S(=O)(=O)O)cc3)cc-2oc2cc(Nc3ccc(S(=O)(=O)O)cc3)ccc12 [Compound 14]	–	–	–	560^b nm	fluorescence quencher (not fluorescent itself, acceptor for emission of fluorescent compounds) [4]: quenchers
